Source: patent publication US12070457B2, “Substituted pyridines, pyridazines, pyrimidines, and 1,2,3-triazines as bruton's tyrosine kinase inhibitors” (HUTCHISON MEDIPHARMA LIMITED, priority 2020, dated 2024)
pIC50: −log10 of the molar value.

What was measured:
BTK recombinant protein = BTK recombinant protein (Homo sapiens (Human), UniProt Q06187); test: Determination of biochemical BTK (Z'-LYTE kinase assay)
Source text: Example 2 Determination of Biochemical BTK
(§1) 1. Reagents and Materials
• BTK recombinant protein: Invitrogen, Cat #PV3363; • Z′-LYTE® kinase test kit-tyrosine 1 peptide: Invitrogen, Cat #PV3190; • 384-well low-flange black flat-bottomed polystyrene NBS microplate, no lid, no sterilization: Corning, Cat #3575; • 96-well polystyrene conical-bottomed MicroWell™ plate, sealed with a lid: Thermo Scientific™ Nunc™, Cat #277143; • Envision multi-mode plate reader: PerkinElmer; • Mixmate® shaker: Eppendorf; • TS-2102 shaking incubator: TENSUC; 2. Methods
Z′-LYTE® biochemical assay employs a fluorescence resonance energy transfer (FRET)-based, coupled-enzyme format and is based on the differential sensitivity of phosphorylated and non-phosphorylated peptides to proteolytic cleavage. Both ends of the short peptide substrate are labeled with two fluorescent groups to form a FRET paired combination. In the primary reaction (the Kinase Reaction), the kinase transfers the γ-phosphate of ATP to a single […] residue on the short peptide substrate. In the secondary reaction (the development reaction), the non-phosphorylated short peptides were recognized and cleaved by a site-specific protease (the development reagent). Phosphorylated short peptides can resist such cleavage. Cleavage of short peptides can disrupt the donor (such as coumarin) and receptor fluorophores (fluorescein) on the short peptides, while the phosphorylated short peptides can maintain FRET. The calculation method of the ratio is as follows, and the ratio of the respective emission signals generated by the donor fluorophores emitted (after excitation at 400 nm) to the receptors is calculated. Emission signal ratio=emitted light by coumarin (445 nm)/emitted light by fluorescein (520 nm). If the FRET short peptide is phosphorylated (such as no kinase inhibitor), the emitted light ratio will remain in a lower level. If the FRET short peptide is non-phosphorylated (such as kinase inhibitor), the emitted light ratio will be in a higher level. In this way, the inhibitory effects of different compound inhibitors on BTK kinase activity would be distinguished.
The experiment were carried out according to the instructions of the Z′-LYTE® kinase test kit-tyrosine 1 peptide. Reagent preparation: 1.33× kinase buffer: 5× kinase buffer was diluted with water to 1.33× kinase buffer; an enzyme solution: the kinase was dissolved in 1.33× kinase buffer with the final working concentration being 3.32 nM; a short peptide solution: a short peptide stock solution (1 mM dissolved in DMSO) was dissolved in 1.33× kinase buffer with the final working concentration being 2 μM; Z′-LYTE Tyr01 phosphorylated short peptide solution, 0.6 μl of stock solution (1 mM dissolved in DMSO) was dissolved in 149.4 μl of 1.33× kinase buffer; an ATP solution: an ATP stock solution (10 mM aqueous solution) was dissolved in 1.33× kinase buffer with the final working concentration being 32 μM; a color-developing solution: color-developing solution B was dissolved in color-developing buffer with the final working concentration being 1× color-developing solution; 4× compound preparation: the compound was diluted in 3-fold gradient concentration to finally obtain 4% DMSO aqueous solution containing different concentrations of the compound, with the final working concentration being 3000, 1000, 333.33, 111.11, 37.04, 12.35, 4.12, 1.37 nM, 8 concentration points in total.
Specific steps of the experiment: In the experiment, there were three control groups, each with 8 replicate wells, which were C1 100% inhibition group (no ATP), C2 0% inhibition group (with ATP), and C3 100% phosphorylation group, respectively. 2.5 μl of serially diluted compound was added to each well of a 384-well plate, with double replicate wells, and 4% DMSO solution was added to wells C1, C2, and C3. […]

[1] = target: phosphorylated BTK in Ramos cells (Homo sapiens (Human), UniProt Q06187); test: Determination of phosphorylated BTK in Ramos cells (BTK phospho-Y223 HTRF); type: cell-based
Procedure: Determination of Phosphorylated BTK in Ramos Cells
as §1
• Ramos cells: Ramos cells were purchased from American Standard Biological Collection Center ATCC Cell Bank, PRMI 1640 medium containing L-glutamine, 1.5 g/L of sodium bicarbonate, 2.383 g/L of HEPES solution, 0.11 g/L of sodium pyruvate and 4.5 g/L of glucose was used, added 10% fetal bovine serum FBS, and placed in a 5% C02, 37° C. cell incubator for normal culture; • PRMI 1640 medium: GIBCO, Cat #A10491-01; • Fetal bovine serum (FBS): GIBCO, Cat #100100-147; • Hank's balanced salt solution (HBSS): GIBCO, Cat #14025-092; • Immunoglobulin M (IgM): Jackson Immuno, Cat #109-006-129; • 3% hydrogen peroxide (3% H2O2): Sigma, Cat #88597-100 ML-F; • Phosphorylated BTK HTRF detection kit (BTK phospho-Y223 HTRF kit): Cisbio, Cat #63ADK017PEH; • Microwell plate reader: Envision, Perkin Elmer; • 384-well plate CulturPlate™384: Perkin Elmer, Cat #6007680 • 96-well plate: Corning, Cat #3799. 2. Methods
Ramos cells were starved in PRMI 1640 medium with 1% FBS for 2 hours. The starved Ramos cells were diluted with Hank's balanced salt solution to 5.0×10^6 cells/ml, seeded in a 96-well plate with 20 μL/well (1.0×10^5 cells/well), and cultured in a 5% CO2, 37° C. cell incubator. […]
The 384 well plate incubated overnight in the constant temperature incubator was taken out to detect the luminescence signal using the Envision microwell plate reader at the […]. The reading value at 665 nm/615 nm of each well multiplied by 104 was used as the signal value of each well.
The average signal value of the wells supplemented with the mixed solution of human immunoglobulin M (final concentration was 10 μg/mL) and hydrogen peroxide (final concentration was 3.3 mM) without the test compound was regarded as the high value, and the average signal value of the wells without immunoglobulin M stimulation and without the test compound was regarded as the low value. According to the signal value in each well, the inhibition ratio (%) of each concentration of compounds was calculated, and the 205 model in XL-Fit 5.3 software (ID Business Solutions Limited) was used to obtain an IC50 value. […]

[2] = Stability test in liver microsomes (mouse); type: in vitro ADME; conditions: 1 μM compound; for stability in mouse liver microsomes compared with reference GDC-0853: 0.5 mg/mL liver microsomes, 30 minutes incubation; for MLM, percentage of remaining compound after 30 minutes of incubation: mouse liver microsomes
Source text: (§2) Example 5 Stability Test in Liver Microsomes
(§3) Both male CD-1 mouse pooled liver microsomes and male SD rat pooled liver microsomes were purchased from BioreclamationIVT Corporation, USA.
(§4) Phenacetin, glucose-6-phosphate dehydrogenase (G-6-PDH) and nicotinamide adenine dinucleotide phosphate (NADP) were all purchased from Sigma-Aldrich Corporation, USA. Glucose-6-phosphate (G-6-P) was purchased from Shanghai Eybridge Chemical Technology Co., Ltd.
(§5) Ten mM test compound stock solution: a certain amount of test compound was weighed, and dissolved with an appropriate volume of DMSO to prepare a stock solution with a concentration of 10 mM for use.
(§6) Reaction stopping solution: an appropriate amount of internal standard compound phenacetin was dissolved in acetonitrile to prepare a reaction stopping solution with a concentration of 1000 ng/mL for use at room temperature.
(§7) The test compound stock solution was diluted with an organic solvent (usually a mixture of acetonitrile, methanol and water with various ratios, depending on the solubility of the compound, if necessary, 1 N hydrochloric acid or 1 N sodium hydroxide would be added to facilitate solubilization) to the 0.1 mM (the final concentration of the compound in the reaction system was 1 μM) and the concentration percentage of the organic solvents in the incubation system no more than 1% (wherein the percentage of DMSO was required to be no more than 0.1%). An appropriate amount of 100 mM NADP, 500 mM G-6-P and 100 Unit/mL G-6-PDH were mixed and diluted with ultrapure water (the final system contains 1 mM NADP, 5 mM G-6-P and 1 Unit/mL G-6-PDH), pre-incubated in a 37° C. water bath for 10 minutes and then placed on ice for use as a NADPH regeneration solution. 20 mg/mL liver microsomes solution and 200 mM phosphate buffer was mixed, and diluted with ultrapure water to give a liver microsomes solution containing 2.5 mg/mL liver microsomes (the final concentration of the reaction system is 0.5 mg/mL) and 50 mM phosphate buffer. The diluted liver microsomes solution was mixed with 0.1 mM compound solution, a mixture of 100 mM EDTA, 300 mM MgCl2 solution, 200 mM phosphate buffer (the final system was 3 mM MgCl2, 1 mM EDTA and 50 mM phosphate buffer) and water in an appropriate volume was added. Finally, the NADPH regeneration solution was added, then the reaction solution was placed in a 37° C. water bath to start the reaction (the reaction time was 30 minutes), and the reaction was stopped by adding the ice-cold acetonitrile reaction stopping solution containing the internal standard. The 0-minute sample was not incubated in a 37° C. water bath, and its difference from the 30-minute sample further lies in that the ice-cold acetonitrile reaction stopping solution containing the internal standard was added first, and then the NADPH regeneration solution was added. The sample added with the reaction stopping internal standard solution was vortexed and mixed well, and then centrifuged at 4400 rpm for 10 minutes. The supernatant was taken and diluted ten times with 50% methanol for LC-MS/MS analysis.
(§8) LC-MS/MS was used to determine the concentration of the compound in the sample. The percentage of the remaining compound after 30 minutes of incubation comparing with that in the 0-minute sample was calculated using the peak area ratio of the compound to the internal standard as an indicator, to evaluate the metabolic stability of the compound.
(§9) Instrument: API4500, API4000 or LTQ Mass Spectrometer; the liquid phase is UHPLC system (Shimadzu LC-30 AD, model Nexra X2) including liquid delivery unit, column thermostat, detector and autosampler; or Agilent 1200 Binary Pump series HPLC and CTC Autosampler.
(§10) Chromatographic column: Waters XSELECT Hss T3 C18 (2.5 μm, 2.1×50 mm) or […] (5 μm, 2.0×50 mm)
(§11) Mobile phase: • A: water with 0.1% FA (formic acid) (with or without 0.1% ACN (acetonitrile)) • B: acetonitrile with 0.1% FA (formic acid).

[3] = Stability test in liver microsomes (rat); type: in vitro ADME; conditions: 1 μM compound; for stability in rat liver microsomes compared with reference GDC-0853: 0.5 mg/mL liver microsomes, 30 minutes incubation; for RLM, percentage of remaining compound after 30 minutes of incubation: rat liver microsomes
Source text: as §2, §3, §4, §5, §6, §7, §8, §9, §10, §11

BTK recombinant protein, sequence (Q06187 whole entry): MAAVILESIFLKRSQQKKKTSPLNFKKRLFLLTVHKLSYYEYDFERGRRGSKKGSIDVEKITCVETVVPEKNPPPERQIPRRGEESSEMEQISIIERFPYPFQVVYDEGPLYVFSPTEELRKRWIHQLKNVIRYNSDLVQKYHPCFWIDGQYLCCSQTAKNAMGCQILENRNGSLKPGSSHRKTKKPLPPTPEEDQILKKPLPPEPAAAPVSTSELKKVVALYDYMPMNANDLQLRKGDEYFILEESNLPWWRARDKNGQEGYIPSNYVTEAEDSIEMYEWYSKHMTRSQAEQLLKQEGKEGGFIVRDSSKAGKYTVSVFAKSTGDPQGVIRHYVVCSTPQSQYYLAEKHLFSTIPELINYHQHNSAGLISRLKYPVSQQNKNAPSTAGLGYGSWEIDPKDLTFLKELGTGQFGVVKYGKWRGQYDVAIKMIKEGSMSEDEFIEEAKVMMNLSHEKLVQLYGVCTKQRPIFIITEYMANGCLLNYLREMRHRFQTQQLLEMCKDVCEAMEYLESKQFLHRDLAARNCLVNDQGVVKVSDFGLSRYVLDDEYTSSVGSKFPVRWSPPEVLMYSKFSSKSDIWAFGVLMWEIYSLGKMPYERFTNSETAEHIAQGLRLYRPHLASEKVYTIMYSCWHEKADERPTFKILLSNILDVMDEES
phosphorylated BTK in Ramos cells, sequence (Q06187 whole entry): as above

Compound	pIC50 (BTK recombinant protein)	pIC50 [1]	MLM, percentage of remaining compound after 30 minutes of incubation [2] [%]	RLM, percentage of remaining compound after 30 minutes of incubation [3] [%]	stability in mouse liver microsomes compared with reference GDC-0853 [2]	stability in rat liver microsomes compared with reference GDC-0853 [3]
2-(3′-(hydroxymethyl)-5-((5-(2-methoxyethyl)-4-methyl-4,5,6,7-tetrahydropyrazolo[1,5-α]pyrazin-2-yl)amido)-1-methyl-6-oxo-1,6-dihydro-[3,4′-bispyridin]-2′-yl)-7,7-dimethyl-7,8-dihydro-2H-cyclopenta[4,5]pyrrolo[1,2-d][1,2,4]triazin-1(6H)-one optically pure enantiomer [Compound 120]	8.10	8.30	–	–	–	–
C[C@H]1CN(C2COC2)CCN1c1ccc(Nc2nc(-c3ccnc(-n4ccn5c6c(cc5c4=O)CC(C)(C)C6)c3CO)cn(C)c2=O)nc1 [Compound 20]	7.57	–	–	–	–	–
CCn1cc(Nc2cc(-c3ccnc(-n4ccn5c6c(cc5c4=O)CC(C)(C)C6)c3CO)cn(C)c2=O)nn1 [Compound 24]	8.52	–	–	–	–	–
CCn1cc(Nc2cc(-c3ccnc(-n4ccn5c6c(cc5c4=O)CC(C)(C)C6)c3CO)nn(C)c2=O)nn1 [Compound 25]	8.10	–	–	–	–	–
COCC(C)n1cc(Nc2nc(-c3ccnc(-n4ccn5c6c(cc5c4=O)CC(C)(C)C6)c3CO)cn(C)c2=O)nn1 (centres unmarked) [Compound 42]	6.57	–	–	–	–	–

The remaining compounds from weak to strong by pIC50 (BTK recombinant protein), led by results:

pIC50 (BTK recombinant protein)	pIC50 [1]	MLM, percentage of remaining compound after 30 minutes of incubation [2] [%]	RLM, percentage of remaining compound after 30 minutes of incubation [3] [%]	Compound	stability in mouse liver microsomes compared with reference GDC-0853 [2]	stability in rat liver microsomes compared with reference GDC-0853 [3]
7.48	7.80	–	–	COCCN1CCn2nc(Nc3cc(-c4ccnc(-n5ccn6c7c(cc6c5=O)CCC7)c4CO)cn(C)c3=O)cc2C1C (racemic) [Compound 145]	–	–
7.74	7.42	–	–	CC1c2cc(Nc3cc(-c4ccnc(-n5ccn6c7c(cc6c5=O)CCC7)c4CO)cn(C)c3=O)nn2CCN1C1COC1 (racemic) [Compound 144]	–	–
8.00	–	83.4	95.6	C[C@H]1CN(C2COC2)CCN1c1ccc(Nc2cc(-c3ccnc(-n4ccn5c6c(cc5c4=O)CC(C)(C)C6)c3CO)nn(C)c2=O)nc1 [Compound 22]	better than that of the reference GDC-0853	better than that of the reference GDC-0853
8.30	–	89.5	~100	Cn1cc(-c2ccnc(-n3ccn4c5c(cc4c3=O)CC(C)(C)C5)c2CO)cc(Nc2ccc(N3CCN(C4COC4)CC3=O)cn2)c1=O [Compound 34]	better than that of the reference GDC-0853	better than that of the reference GDC-0853
